This note sets out measurements from US11433136B2, “Polyacetal polymers, conjugates, particles and uses thereof” (THE GENERAL HOSPITAL CORPORATION, priority 2015, dated 2022).

The subject of data set [1] is orthotopic PAN02 pancreatic tumors. The data set can be described thus: Orthotopic PAN02 pancreatic tumor study in lean and obese mice. It counts as in vivo, mouse. The note with it: for gene and protein expression of activated PSC marker αSMA in tumors: losartan 90 mg/Kg i.p. every day. The text has this:
(§1) Wild-type (WT) C57BL/6 and FVB male mice were originally obtained from Jackson Laboratory (The Jackson Laboratory, Bar Harbor, Me.) and bred and maintained in our defined-flora colony. KPC (Ptf1-Cre/LSL-KRAS^G12D/p53-R172H) and iKRAS (p48-Cre;R26-rtTa-IRES-EGFP;TetO-Kras^G12D mice) mice were obtained. To generate an obese model, mice (6-week old) were given either 10% or a 60% fat diet (D12450J and D12492, Research Diets, New Brunswick, N.J.) for 10 weeks (or until tumor collection in spontaneous models), as previously described (Surwit, R. S., et al. Metabolism: clinical and experimental 44, 645-651 (1995)). For implanted tumor experiments, AK4.4 cells (KrasG12D and p53 ? /) were isolated from mice generating spontaneous pancreatic tumors (Ptf1-Cre/LSL-Kras^G12D/p53Lox/ ? ) (Bardeesy, N., et al. Proc Natl Acad Sci USA 103, 5947-5952 (2006)). Orthotopic pancreatic tumors were generated by implanting a small piece (1 mm^3) of viable tumor tissue (from a source tumor in a separate animal) into the pancreas of a 6-8 week-old male lean or obese FVB (AK4.4 model) or C57BL/6 (PAN02 model) mouse. PAN02 tumor chunks and AK4.4 cells were authenticated by IDEXX laboratories. (PAN02: IDEXX RADIL Case #22366-2013. AK4.4: IDEXX RADIL Case #27818-2014). For AT1- and AT2-knockout studies, tumors were implanted into the pancreas of a 6-8-week-old male lean or obese C57BL/6, agtr1a−/− or agtr2−/− mice. With exception of PAN02, these orthotopically grown pancreatic cancers are characterized by a dense collagenous stroma, a hallmark of pancreatic cancer desmoplasia (Diop-Frimpong, B., et al. Proc Natl Acad Sci USA 108, 2909-2914 (2011)).
(§2) For all experiments unless specified below, mice bearing orthotopic PAN02 or AK4.4 pancreatic tumors were randomized into treatment groups (or no treatment) and tumors were collected at day 21 after implantation. For tumor growth study with chemotherapy, mice were divided into treatment groups 7 days after implantation, and treated with either 5-FU (30 mg/Kg i.v. every 4 days) or an equal volume of saline by intravenous injection on days 7, 11 and 15 after implantation, with tumors collected at day 19. For tumor growth study with losartan, mice were treated with losartan (90 mg/Kg i.p. every day) or an equal volume of PBS intraperitoneally starting on day 5 after implantation and for the duration of the study. In the combined experiment of losartan and 5-FU, the same protocol was used for each drug as described above. TAN depletion by a Ly6G specific inhibitor (BioExcell, 4 mg/Kg i.p. every 2 days) was administered to PAN02 bearing animals starting at day 1 or day 7, and to AK4.4 bearing animals at day 7. IL-1β inhibition (MM425B, Endogen/Pierce Biotechnology, 2 mg/Kg i.p. every 2 days) was administered to PAN02 bearing animals starting at day 7. At the completion of the study, adipose tissue and tumor samples were collected, weighed, and processed for further analysis. When spontaneous models were used, tumors were collected when palpable.
(§3) To assess obesity-induced ECM remodeling and fibrosis fibrillar collagen accumulation was quantified using second harmonic generation imaging, and collagen-I content, hyaluronan, MMPs levels and fibrosis related signaling pathways (e.g. AT-I, CTGF, TSP 1, TGFβ1, and P38/ERK signaling) were measured by rtPCR array, immunohistochemistry and immunoblotting. The topographical distribution and density of cancer-associated fibroblasts (CAFs) in tumor sections was detected by staining for αSMA activated fibroblast marker. Vessel morphology and perfusion was assessed using standard histological analyses.
Mice bearing orthotopic PAN02 were injected with 30 mg/kg of 5-FU 3 weeks after tumor implantation, administered retro-orbitally 30 min prior to tumor removal. The tissue was dabbed of excess blood and then snap-frozen in liquid nitrogen for analysis. […]

Data set [2] concerns orthotopic AK4.4 pancreatic tumors. The data set can be described thus: Orthotopic AK4.4 pancreatic tumor study in lean and obese mice. It is filed as in vivo, mouse. The following applies: for gene and protein expression of activated PSC marker αSMA in tumors: losartan 90 mg/Kg i.p. every day.
Description: as §1, §2, §3
Tumor-bearing mice were perfused through intracardiac injection of PBS and sacrificed. Pancreatic tumor tissues were harvested, minced, and digested at 37° C. for 1 h with DMEM containing collagenase type 1A (1.5 mg/mL), hyaluronidase (1.5 mg/mL), and DNase (2 mg/mL). The digestion mixtures were filtered through 70-μm cell strainers. […]

[3] abbreviates: obese mice, effects only modest in lean animals.
Setting [4] is: obese, but not lean mice, losartan.
Where [5] appears, read: lean mice, 3 doses of 5-FU 30 mg/kg BW q4d.
[6] abbreviates: obese mice, 3 doses of 5-FU 30 mg/kg BW q4d.

Regarding `CCCCc1nc(Cl)c(CO)n1Cc1ccc(-c2ccccc2-c2nn[nH]n2)cc1` [losartan], the “gene and protein expression of activated PSC marker αSMA in tumors” value is “only mildly” in data set [1] (lean mice), “reduce” in data set [1] (obese mice), “only mildly” in data set [2] (lean mice) and “reduce” in data set [2] (obese mice). Besides, the “response to chemotherapy with AT1 blockade” value in data set [1] (obese but not lean animals, losartan plus 5-FU) is reported as “enhanced”; in data set [2] (obese mice, somewhat effective in the lean setting, losartan plus 5-FU) it was “improved therapeutic response in tumors to a greater extent”. The “tumor weight, losartan monotherapy” value in data set [1] (obese mice) and in data set [2] (obese mice) was “reduced tumor weight” in each case. Besides, the “obesity-induced abnormal expression of desmoplasia-related markers and AT1 downstream signaling” value in data set [1] (setting [3]) and in data set [2] (setting [3]) was “normalized” in each case. The “gene and protein expression of collagen-I and fibrillar collagen in tumors” value in data set [1] (setting [4]) and in data set [2] (setting [4]) was “decrease” in each case.
In the case of `O=c1[nH]cc(F)c(=O)[nH]1` [Example 5-FU, 5-fluorouracil], the “reduction in tumor weight as compared to untreated controls” value in data set [1] (setting [5]) and in data set [2] (setting [5]) was 50% each time. Also, the “effect on tumor weight” value in data set [1] (setting [6]) and in data set [2] (setting [6]) was “did not significantly reduce tumor weight” each time. In data set [1] (tumors in obese mice versus lean, 30 mg/kg, 30 min prior to tumor removal), the “delivery of 5-FU to tumors” value is given as “decreased”.
